Organism: Rattus norvegicus
Assay: DrugMatrix - Regimen: Daily Repeat
Type: toxicity, organism-based, Sprague-Dawley
Set-up: regimen Daily Repeat, gender Male, age 6-8 weeks
Conditions: in vivo, po, route oral GAVAGE, vehicle 100 % SALINE; for ABSOLUTE BASOPHIL / ABSOLUTE EOSINOPHIL / ABSOLUTE LYMPHOCYTE / ABSOLUTE MONOCYTE / ABSOLUTE SEGMENTED NEUTROPHIL / BASOPHIL / EOSINOPHIL / ERYTHROCYTE COUNT / HEMATOCRIT / HEMOGLOBIN / LEUKOCYTE COUNT / LYMPHOCYTE / MEAN CORPUSCULAR HEMOGLOBIN / MEAN CORPUSCULAR HEMOGLOBIN CONCENTRATION / MEAN CORPUSCULAR VOLUME / MONOCYTE / NEUTROPHIL / NUCLEATED RED BLOOD CELLS / PLATELET COUNT: tissue Blood; for ALANINE AMINOTRANSFERASE / ALBUMIN / ALKALINE PHOSPHATASE / ASPARTATE AMINOTRANSFERASE / BLOOD UREA NITROGEN / CARBON DIOXIDE / CHLORIDE / CHOLESTEROL / CREATINE PHOSPHOKINASE / CREATININE / GLUCOSE / LACTATE DEHYDROGENASE / LIPASE / PHOSPHORUS / POTASSIUM / SODIUM / TOTAL BILIRUBIN / TOTAL PROTEIN / URIC ACID: tissue Plasma
[1] = 0 mg/kg, 72 h, dose level Control, time 3 day
[2] = 0 mg/kg, […], dose level Control, time 7 day
[3] = 3000 mg/kg, 72 h, dose level Low, time 3 day

SMILES: CCO [ALCOHOL]
- ABSOLUTE BASOPHIL [1]: 0 CELLS/uL
- ABSOLUTE EOSINOPHIL [1]: 66 CELLS/uL
- ABSOLUTE LYMPHOCYTE [1]: 11922.83 CELLS/uL
- ABSOLUTE MONOCYTE [1]: 401.5 CELLS/uL
- ABSOLUTE SEGMENTED NEUTROPHIL [1]: 1526.33 CELLS/uL
- BASOPHIL [1]: 0%
- EOSINOPHIL [1]: 0.5%
- ERYTHROCYTE COUNT [1]: 5.62 x10E6/uL
- HEMATOCRIT [1]: 37.17%
- HEMOGLOBIN [1]: 13.53 G/DL
- LEUKOCYTE COUNT [1]: 13.92 x10E3/uL
- LYMPHOCYTE [1]: 86.17%
- MEAN CORPUSCULAR HEMOGLOBIN [1]: 24.07 pg
- MEAN CORPUSCULAR HEMOGLOBIN CONCENTRATION [1]: 36.42 G/DL
- MEAN CORPUSCULAR VOLUME [1]: 66.1 fL
- MONOCYTE [1]: 3%
- NEUTROPHIL [1]: 10.33%
- NUCLEATED RED BLOOD CELLS [1]: 0 /100WBC
- PLATELET COUNT [1]: 1107 x10E3/uL
- ALANINE AMINOTRANSFERASE [1]: 45.33 u/L
- ALBUMIN [1]: 4.3 G/DL
- ALKALINE PHOSPHATASE [1]: 321.33 u/L
- ASPARTATE AMINOTRANSFERASE [1]: 77.33 u/L
- BLOOD UREA NITROGEN [1]: 14.33 mg/dL
- CARBON DIOXIDE [1]: 32.33 mmol/L
- CHLORIDE [1]: 99.67 MEQ/L
- CHOLESTEROL [1]: 82.33 mg/dL
- CREATINE PHOSPHOKINASE [1]: 205.5 u/L
- CREATININE [1]: 0.19 mg/dL
- GLUCOSE [1]: 150.83 mg/dL
- LACTATE DEHYDROGENASE [1]: 88.17 u/L
- LIPASE [1]: 10.83 u/L
- PHOSPHORUS [1]: 10.9 mg/dL
- POTASSIUM [1]: 5.83 MEQ/L
- SODIUM [1]: 145.15 MEQ/L
- TOTAL BILIRUBIN [1]: 0.12 mg/dL
- TOTAL PROTEIN [1]: 6.22 G/DL
- URIC ACID [1]: 1 mg/dL
- ABSOLUTE BASOPHIL [2]: 0 CELLS/uL
- ABSOLUTE EOSINOPHIL [2]: 22 CELLS/uL
- ABSOLUTE LYMPHOCYTE [2]: 11105.17 CELLS/uL
- ABSOLUTE MONOCYTE [2]: 258.17 CELLS/uL
- ABSOLUTE SEGMENTED NEUTROPHIL [2]: 881.33 CELLS/uL
- BASOPHIL [2]: 0%
- EOSINOPHIL [2]: 0.17%
- ERYTHROCYTE COUNT [2]: 5.29 x10E6/uL
- HEMATOCRIT [2]: 34.03%
- HEMOGLOBIN [2]: 13.67 G/DL
- LEUKOCYTE COUNT [2]: 12.27 x10E3/uL
- LYMPHOCYTE [2]: 90.83%
- MEAN CORPUSCULAR HEMOGLOBIN [2]: 25.9 pg
- MEAN CORPUSCULAR HEMOGLOBIN CONCENTRATION [2]: 40.18 G/DL
- MEAN CORPUSCULAR VOLUME [2]: 64.42 fL
- MONOCYTE [2]: 2.17%
- NEUTROPHIL [2]: 6.83%
- NUCLEATED RED BLOOD CELLS [2]: 0 /100WBC
- PLATELET COUNT [2]: 1159.83 x10E3/uL
- ALANINE AMINOTRANSFERASE [2]: 45.83 u/L
- ALBUMIN [2]: 4.1 G/DL
- ALKALINE PHOSPHATASE [2]: 240 u/L
- ASPARTATE AMINOTRANSFERASE [2]: 88.67 u/L
- BLOOD UREA NITROGEN [2]: 13.67 mg/dL
- CARBON DIOXIDE [2]: 31.83 mmol/L
- CHLORIDE [2]: 96.83 MEQ/L
- CHOLESTEROL [2]: 71.17 mg/dL
- CREATINE PHOSPHOKINASE [2]: 202.5 u/L
- CREATININE [2]: 0.22 mg/dL
- GLUCOSE [2]: 132.67 mg/dL
- LACTATE DEHYDROGENASE [2]: 107.17 u/L
- LIPASE [2]: 10.5 u/L
- PHOSPHORUS [2]: 10.47 mg/dL
- POTASSIUM [2]: 6.23 MEQ/L
- SODIUM [2]: 140.73 MEQ/L
- TOTAL BILIRUBIN [2]: 0.12 mg/dL
- TOTAL PROTEIN [2]: 6.18 G/DL
- URIC ACID [2]: 0.87 mg/dL
- ABSOLUTE BASOPHIL [3]: 0 CELLS/uL
- ABSOLUTE EOSINOPHIL [3]: 0 CELLS/uL
- ABSOLUTE LYMPHOCYTE [3]: 9478 CELLS/uL
- ABSOLUTE MONOCYTE [3]: 154.17 CELLS/uL
- ABSOLUTE SEGMENTED NEUTROPHIL [3]: 701.17 CELLS/uL
- BASOPHIL [3]: 0%
- EOSINOPHIL [3]: 0%
- ERYTHROCYTE COUNT [3]: 5.61 x10E6/uL
- HEMATOCRIT [3]: 37.43%
- HEMOGLOBIN [3]: 13.38 G/DL
- LEUKOCYTE COUNT [3]: 10.33 x10E3/uL
- LYMPHOCYTE [3]: 91.5%
- MEAN CORPUSCULAR HEMOGLOBIN [3]: 23.87 pg
- MEAN CORPUSCULAR HEMOGLOBIN CONCENTRATION [3]: 35.78 G/DL
- MEAN CORPUSCULAR VOLUME [3]: 66.65 fL
- MONOCYTE [3]: 1.5%
- NEUTROPHIL [3]: 7%
- NUCLEATED RED BLOOD CELLS [3]: 0 /100WBC
- PLATELET COUNT [3]: 1014.67 x10E3/uL
- ALANINE AMINOTRANSFERASE [3]: 55.33 u/L
- ALBUMIN [3]: 4.22 G/DL
- ALKALINE PHOSPHATASE [3]: 351.5 u/L
- ASPARTATE AMINOTRANSFERASE [3]: 80.33 u/L
- BLOOD UREA NITROGEN [3]: 10.17 mg/dL
- CARBON DIOXIDE [3]: 30.17 mmol/L
- CHLORIDE [3]: 99.8 MEQ/L
- CHOLESTEROL [3]: 73.17 mg/dL
- CREATINE PHOSPHOKINASE [3]: 216.33 u/L
- CREATININE [3]: 0.24 mg/dL
- GLUCOSE [3]: 152.67 mg/dL
- LACTATE DEHYDROGENASE [3]: 102.83 u/L
- LIPASE [3]: 8.17 u/L
- PHOSPHORUS [3]: 10.45 mg/dL
- POTASSIUM [3]: 5.55 MEQ/L
- SODIUM [3]: 144.46 MEQ/L
- TOTAL BILIRUBIN [3]: 0.1 mg/dL
- TOTAL PROTEIN [3]: 6.13 G/DL
- URIC ACID [3]: 0.87 mg/dL
